Entries after “also recorded” stand apart in the source; their conditions may differ.
Legend:
[1] = tested on: L. (L.) amazonensis intracellular amastigotes; experiment: Intracellular amastigote assay, L. (L.) amazonensis in BALB/c peritoneal macrophages; type: cell-based; conditions: Leishmania amazonensis, in Mus musculus, 72 h; for IC50: Macrophage, intracellular amastigotes in macrophages
Description: (§1) L. (L.) amazonensis and L. (V.) braziliensis promastigotes with 7–8 days and 5–6 days of growth, respectively, were harvested from cultures and added to a fresh Schneider's medium supplemented with 5% FCS, pH 6.0, and incubated at 32°C for 7 days for L. (L.) amazonensis and 4–5 days for L. (V.) braziliensis until a complete transformation to amastigote-like.
(§2) Peritoneal macrophages from BALB/c mice were harvested by washing with ice-cold RPMI 1640 medium, 4 days after induction with a 3% thioglycollate solution. Macrophages were diluted in RPMI 1640 medium (Sigma, Poole, United Kingdom) plus 10% FCS and plated in 24 well plates with a circular cover glass at a plating density of 2×10^5 macrophages/well. Macrophages were allowed to adhere for 2 h at 37°C and 5% CO2, when the medium was replaced by a fresh one and incubated overnight.
Macrophages were infected with amastigote-like parasites from L. (L.) amazonensis or L. (V.) braziliensis. The parasites were counted in a Neubauer's chamber and adjusted to a macrophage-amastigote ratio of 1∶8. Infected cultures were maintained at 37°C and 5% CO2. After 4 h, extracellular parasites were removed by washing, and a fresh medium containing either TPM compounds, no drug, or the reference drug. AmB (Fungizone®-Bristol- Meyers Squibb Pharmaceutics Ltda, Bedford, USA) was the chosen reference drug and was used at 0.2 µg/mL. After 72 h, the cover glass was removed from the well, washed in RPMI 1640 medium, set in microscope blades, fixed with methanol, and stained with Giemsa for evaluation. Under the immersion microscope, infection indexes (number of amastigotes/100× percentage of infected macrophages) were determined by counting the numbers of intracellular amastigotes in 100 macrophages. […] Each point was tested in triplicate and three independent experiments were then performed. Results are presented as mean and 95% CI [25].

[2] = tested on: L. (V.) braziliensis intracellular amastigotes; experiment: Intracellular amastigote assay, L. (V.) braziliensis in BALB/c peritoneal macrophages; type: cell-based, Leishmania (Viannia) braziliensis; conditions: Leishmania braziliensis, in Mus musculus, 72 h
Description: as §1, §2
Macrophages were infected with amastigote-like parasites from L. (L.) amazonensis or L. (V.) braziliensis. The parasites were counted in a Neubauer's chamber and adjusted to a macrophage-amastigote ratio of 1∶8. Infected cultures were maintained at 37°C and 5% CO2. […] Under the immersion microscope, infection indexes (number of amastigotes/100× percentage of infected macrophages) were determined by counting the numbers of intracellular amastigotes in 100 macrophages. […]

[3] = tested on: L. (L.) amazonensis promastigotes; experiment: Promastigotes assay, L. (L.) amazonensis; type: cell-based; conditions: Leishmania amazonensis, 48 h incubation, mean of triplicates
Description: (§3) Promastigotes of L. (L.) amazonensis (IFLA/BR/1967/PH-8), L. (V.) braziliensis (MHOM/BR/75/M2903), and L. (L.) major (MHOM/IL/80/Friedlin) were maintained at 23°C in Schneider's Drosophila medium (Merck, Germany) supplemented with 20% heat-inactivated fetal calf serum (FCS) (Gibco, Eggenstein, Germany), pH 7.2. The same strain of L. (L.) amazonensis was used for both in vitro and in vivo experiments.
(§4) Promastigotes of L. (L.) amazonensis, L. (V.) braziliensis or L. (L.) major with 3 or 4 days of growth were plated in 24 well plates at a plating density of 1×10^6 parasites/mL in Schneider's medium supplemented with 20% FCS, pH 7.2. Drugs were diluted at the same medium and added to a parasite suspension in different concentrations, in triplicate. After 48 h of incubation, the parasites were counted and compared to the controls containing parasites in the absence of drugs. The drug concentration corresponding to 50% of the parasite growth inhibition was expressed as IC50. Three independent experiments were performed to confirm the results. Data are presented as mean and 95% CI.

[4] = tested on: L. (L.) major promastigotes; experiment: Promastigotes assay, L. (L.) major; type: cell-based; conditions: Leishmania major, 48 h incubation, mean of triplicates
Description: as §3, §4

[5] = Cytotoxicity MTT assay on macrophages; type: cell-based; conditions: mouse, BALB/c peritoneal macrophages, 68 h + 4 h
Description: To evaluate the toxicity of selected compounds, an in vitro cytotoxicity assay on macrophages from BABL/c mice was performed through 3-(4,5-dimethyithiazol-2-yl)-2,5- diphenyltetrazolium bromide (MTT) (Sigma, Poole, United Kingdom) assay. Briefly, peritoneal macrophages from BALB/c mice were harvested, as described previously and plated in 96-well-flat-bottom microplates at a plating density of 1×10^5 macrophages/well. Macrophages were allowed to adhere for 2 h at 37°C and 5% CO2, at which time the medium was replaced by a fresh one and incubated over night. Then, the cells were exposed to ten points of serial dilution of TPM 1, 2, 6, 9 or GV ([…]), which were used to obtain a curve to determine the IC50. After 68 h of incubation, 10 µL of MTT (10 mg/mL) was added to each well and the plates were further incubated for 4 h. The enzymatic reaction was then stopped by addition of 100 µL of 50% isopropanol–10% sodium dodecyl sulfate solution. The optical density at 570 nm was quantified using an ELISA plate reader (BioSource, Inc., EUA). Three independent experiments, in triplicate, were performed to determine the cytotoxicity and data were expressed as mean and 95% CI. An experiment was also done to control the possibility of dye color interference on MTT assay. […] The optical density at 570 nm was measured using an ELISA plate reader (BioSource, Inc., EUA).

[6] = tested on: L (L.) amazonensis-infected BALB/c mice; experiment: In vivo topical gel treatment, parasite quantification at the site of infection by limiting dilution; design: species or system Leishmania (Leishmania) amazonensis in BALB/c mice; conditions: twice a day, 20 days; for decrease of parasite burdens versus control / parasite burdens at site of infection (number of parasites): 1% gel; for parasite burdens at site of infection (number of parasites): 3 days after treatment, control group 1×10^7 (Figure 3A); for number of parasites within the lesion: control group 2.2×10^7 (Figure 3B)
Description: The formulation of the GV and TPM 6 gel was prepared by mixing equal amounts of a 2% hydroxyethylcellulose gel (HEC; Natrosol 250 HR, Aqualon) and a 2% GV or TPM 6 hydroethanolic solution (mixture ethanol/water 1/5), until a homogeneous preparation had been attained. Therefore, GV and TPM 6 concentration in these formulations was 1%. The gel lower concentrations for dose-response experiments was obtained by diluting the 1% GV gel with 1% HEC gel.
BALB/c mice (females, 5–6 weeks old) were inoculated with 1×10^7 stationary growth phase promastigotes of L (L.) amazonensis through subcutaneous injections at the base of the tail, after trichotomy.
To evaluate the in vivo efficacy of GV and TPM 6, after development of ulcerated lesions (average diameter of 7 to 9 mm), BALB/c mice were divided into three groups. For treatment with TPM 6 and GV, lesions were covered with 50 µl of a gel formulation containing either 1% GV or 1% TPM 6, twice a day, for 20 days, using an Eppendorf pippetor. Control group: animals from control group were treated with the gel formulation without GV or TPM 6 (placebo). The treatment efficacy was evaluated through of the parasite quantification at the site of infection (see below).
Afterwards, a dose-effect study of GV was performed. BALB/c mice, presenting ulcerated lesions (average diameter of 7 to 9 mm), were divided into four groups, according to lesion size, to assure similar average lesion size among treated groups. The GV gel formulation was applied topically at 0.1, 0.5 or 1.0% twice a day, for 20 days. Control group: animals from control group were treated with the gel formulation without GV (placebo). The treatment efficacy was evaluated through of the parasite quantification at the site of infection (see below).
Three days after the interruption of treatment, the number of viable parasites at the site of infection was quantified by a limiting-dilution assay. Skin fragments from ulcerated lesions, were homogenized with a tissue grinder in Schneider's modified medium supplemented with 10% bovine fetal serum and 100 U/mL penicilin and 100 µg/mL streptomycin. Next, the tissue was centrifuged at 50 g for two minutes for sedimentation (Hitachi, Himac). The supernatant was separated and centrifuged again at 1700 g for 15 minutes (Express, Jouan). The pellet formed was resuspended in 1 mL of Schneider's modified medium supplemented with 10% FCS and 1% of a 100 U/mL penicillin and 100 µg/mL streptomycin solution. The homogenate was submitted to serial dilutions in duplicates in sterile 96 well culture plates and incubated at 23°C. Each well was examined for the presence of parasites, and the number of parasites was quantified by the highest dilution at which parasites could grow over a 7-day period. The lowest dilution that parasites were detected was 10^−1, which was considered the limit of quantification.

[7] = tested on: L. (V.) braziliensis promastigotes; experiment: Promastigotes assay, L. (V.) braziliensis; type: cell-based, Leishmania (Viannia) braziliensis; conditions: Leishmania braziliensis, 48 h incubation, mean of triplicates
Description: as §3, §4

[8] = tested on: hamsters infected L. (V.) braziliensis; design: method as in PMID 15652330; conditions: intramuscular administration, doses equivalent to human chemotherapy; cited from earlier work
[9] = tested on: BALB/c mice infected with L. (L.) amazonensis; conditions: intramuscular administration, doses equivalent to human chemotherapy; cited from earlier work
[10] = Peritoneal macrophage, control drug at 0.2 µg/ml, intracellular amastigotes, read-out: mean value of parasite growth inhibition

Q: For `C[C@@H]1[C@H](O)[C@@H](C)/C=C/C=C/C=C/C=C/C=C/C=C/C=C/[C@H](O[C@@H]2O[C@H](C)[C@@H](O)[C@H](N)[C@@H]2O)C[C@@H]2O[C@](O)(C[C@@H](O)C[C@@H](O)[C@H](O)CC[C@@H](O)C[C@@H](O)CC(=O)O[C@H]1C)C[C@H](O)[C@H]2C(=O)O` [AmB, amphotericin B], which inhibition at 0.2 µg/mL [1, 10] is on record?
A: 99.5%

Q: What about the inhibition at 0.2 µg/mL [2, 10] of the same molecule?
A: 98%

Q: For `CN(C)c1ccc(C(=C2C=CC(=[N+](C)C)C=C2)c2ccc(N(C)C)cc2)cc1` [GV, gentian violet], which IC50 [3] is on record?
A: 0.025 µM

Q: And the IC50 [4]?
A: 0.034 µM

Q: And the IC50 [1]?
A: 170 nM

Q: And the IC50 at 68 h [5]?
A: 4030 nM

Q: What about the “decrease of parasite burdens versus control” value [6] of the same molecule?
A: complete elimination of parasites

Q: And the “parasite burdens at site of infection (number of parasites)” value [6]?
A: no parasites were found

Q: What about the “number of parasites within the lesion” value ([6]; GV gel 0.1%) of the same molecule?
A: 2.2×10^6

Q: And the “number of parasites within the lesion” value ([6]; GV gel 0.5%)?
A: 2.62×10^5

Q: What about the “number of parasites within the lesion” value ([6]; GV gel 1%) of the same molecule?
A: parasites were not detected; also recorded: complete elimination of parasite burden

Q: For `CCN(CC)c1ccc(C(=C2C=C(Cl)C=CC2=[Cl+])c2ccc(N(CC)CC)cc2)cc1` [TPM 3], which IC50 [3] is on record?
A: > 1 µM

Q: For `CCN(CC)c1ccc(C(=C2C=CC(C)C=C2)c2ccc(N(CC)CC)cc2)cc1` (stereo not drawn) [TPM 6], which IC50 [3] is on record?
A: 0.031 µM

Q: And the IC50 [4]?
A: 0.045 µM

Q: What about the IC50 [7] of the same molecule?
A: 0.063 µM

Q: What about the IC50 [1] of the same molecule?
A: 100 nM

Q: What about the IC50 ([2]; Macrophage, intracellular amastigotes in macrophages) of the same molecule?
A: 100 nM

Q: What about the IC50 at 68 h [5] of the same molecule?
A: 4160 nM

Q: And the “decrease of parasite burdens versus control” value [6]?
A: three orders of magnitude

Q: What about the “parasite burdens at site of infection (number of parasites)” value [6] of the same molecule?
A: 1×10^4

Q: For `CN(C)c1ccc(C(=C2C=CC(c3cnc(-c4ccc(-c5ncc(-c6ccccc6)o5)cc4)o3)C=C2)c2ccc(N(C)C)cc2)cc1` (stereo not drawn) [TPM 7], which IC50 [3] is on record?
A: > 5 µM

Q: For `CCN(CC)c1ccc(C(=C2C=C(C(c3ccc(Cl)cc3)C(Cl)(Cl)Cl)C=CC2=[Cl+])c2ccc(N(CC)CC)cc2)cc1` (stereo not drawn) [TPM 10], which IC50 [3] is on record?
A: > 4 µM

Q: Which results are given for meglumine antimoniate [Glucantime]?
A: reduction in lesions size [8]: did not lead to significant reductions in lesions size; reduction in lesions size [9]: did not lead to significant reductions in lesions size

From PMC3544846, “Triphenylmethane Derivatives Have High In Vitro and In Vivo Activity against the Main Causative Agents of Cutaneous Leishmaniasis” (PLoS ONE, 2013)
